Our source for the IC50 values is patent US8877769B2, “Heteroaryl-substituted urea modulators of fatty acid amide hydrolase” (Janssen Pharmaceutica NV, priority 2008, dated 2014).

Structures are written as SMILES.

For one experiment, the target named is T1, FAAH (Homo sapiens, UniProt O00519).
T1 sequence (O00519 1-579): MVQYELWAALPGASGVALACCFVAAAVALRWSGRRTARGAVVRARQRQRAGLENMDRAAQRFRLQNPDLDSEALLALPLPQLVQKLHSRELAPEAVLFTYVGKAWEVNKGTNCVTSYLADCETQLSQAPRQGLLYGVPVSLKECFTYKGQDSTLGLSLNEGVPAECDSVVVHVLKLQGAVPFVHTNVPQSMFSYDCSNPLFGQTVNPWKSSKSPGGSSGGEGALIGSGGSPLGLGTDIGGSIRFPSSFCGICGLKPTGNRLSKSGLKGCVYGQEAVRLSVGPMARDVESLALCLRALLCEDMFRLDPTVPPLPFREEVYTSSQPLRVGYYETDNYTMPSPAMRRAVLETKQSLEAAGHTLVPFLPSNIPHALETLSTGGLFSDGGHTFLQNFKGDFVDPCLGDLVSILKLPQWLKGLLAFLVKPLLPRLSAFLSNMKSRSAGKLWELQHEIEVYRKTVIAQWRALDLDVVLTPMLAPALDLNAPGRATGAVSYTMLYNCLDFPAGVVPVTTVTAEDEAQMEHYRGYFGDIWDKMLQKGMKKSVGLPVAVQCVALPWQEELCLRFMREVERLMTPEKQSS
As to the kind of experiment: Assay Method 1: FAAH assay, 3H-anandamide hydrolysis in cell homogenate.

Another experiment deals with T2, Rat FAAH (Rattus norvegicus, UniProt P97612).
T2 construct: expressed in transfected cells
T2 sequence (P97612 1-579): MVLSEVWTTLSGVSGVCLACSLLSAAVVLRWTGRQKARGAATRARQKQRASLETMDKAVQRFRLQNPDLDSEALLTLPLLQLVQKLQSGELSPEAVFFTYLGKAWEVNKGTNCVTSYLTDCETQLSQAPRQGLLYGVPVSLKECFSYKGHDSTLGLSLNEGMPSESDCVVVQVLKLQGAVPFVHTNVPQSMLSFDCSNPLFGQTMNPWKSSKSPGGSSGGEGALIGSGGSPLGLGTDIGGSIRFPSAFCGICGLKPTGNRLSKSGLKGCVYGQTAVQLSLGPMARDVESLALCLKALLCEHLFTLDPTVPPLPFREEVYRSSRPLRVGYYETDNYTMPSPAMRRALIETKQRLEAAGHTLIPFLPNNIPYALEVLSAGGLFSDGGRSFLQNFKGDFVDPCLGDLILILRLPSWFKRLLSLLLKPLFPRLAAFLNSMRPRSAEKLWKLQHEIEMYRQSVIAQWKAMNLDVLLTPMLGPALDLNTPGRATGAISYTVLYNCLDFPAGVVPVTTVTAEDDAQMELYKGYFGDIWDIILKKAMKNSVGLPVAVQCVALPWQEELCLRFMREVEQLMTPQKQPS
The experiment in a line: Assay Method 2: FAAH assay, 3H-anandamide hydrolysis in cell homogenate. Format: biochemical. The conditions noted are these: average of results obtained, > value = solubility limit or highest concentration tested. Here is the method:
A. Transfection of Cells with Rat FAAH
The assay mixture consisted of 50 μL of the cell homogenate, 10 μL of the test compound, and 40 μL of anandamide [1-^3H-ethanolamine] (^3H-AEA, Perkin-Elmer, 10.3 Ci/mmol), which was added last, for a final tracer concentration of 80 nM. The reaction mixture was incubated at rt for 1 h. During the incubation, 96-well Multiscreen filter plates (catalog number MAFCNOB50; Millipore, Bedford, Mass., USA) were loaded with 25 μL of activated charcoal (Multiscreen column loader, catalog number MACL09625, Millipore) and washed once with 100 μL of MeOH. […] After the 1 h incubation, 60 μL of the reaction mixture were transferred to the charcoal plates, which were then assembled on top of the DYNEX plates using Centrifuge Alignment Frames (catalog number MACF09604, Millipore). The unbound labeled ethanolamine was centrifuged through to the bottom plate (5 min at 2000 rpm), which was preloaded with the scintillant, as described above. The plates were sealed and left at rt for 1 h before counting on a Hewlett Packard TopCount.

The term IC50 denotes the concentration at which inhibition is half-maximal. Low readings indicate greater potency in that assay, high ones weaker potency in that assay. For `O=C(Nc1noc2ncccc12)N1CCN(Cc2cccc(Oc3cccc(Br)c3)c2)CC1` [Example 35, 4-[3-(3-Bromo-phenoxy)-benzyl]-piperazine-1-carboxylic acid isoxazolo[5,4-b]pyridin-3-ylamide], the IC50 is 150 nM against FAAH and 300 nM on Rat FAAH.

With `O=C(Nc1noc2ncccc12)N1CCN(Cc2cccc(Oc3cccc(OC(F)(F)F)c3)c2)CC1` [Example 36, 4-[3-(3-Trifluoromethoxy-phenoxy)-benzyl]-piperazine-1-carboxylic acid isoxazolo[5,4-b]pyridin-3-ylamide], the IC50 is 1400 nM at FAAH and 6000 nM on Rat FAAH.

Turning to `O=C(Nc1noc2ncccc12)N1CCN(Cc2cccc(Oc3ccc(OC(F)(F)F)cc3)c2)CC1` [Example 37, 4-[3-(4-Trifluoromethoxy-phenoxy)-benzyl]-piperazine-1-carboxylic acid isoxazolo[5,4-b]pyridin-3-ylamide], the half-inhibitory concentration (IC50) turned out to be 200 nM against FAAH and 100 nM on Rat FAAH.

As to `O=C(Nc1noc2cnccc12)N1CCN(Cc2ccc3c(c2)OC(F)(F)O3)CC1` [Example 39, 4-(2,2-Difluoro-benzo[1,3]dioxol-5-ylmethyl)-piperazine-1-carboxylic acid isoxazolo[5,4-c]pyridin-3-ylamide], the IC50 was 6 nM against FAAH and 11 nM against Rat FAAH.

For `O=C(Nc1noc2cccnc12)N1CCN(Cc2ccc3c(c2)OC(F)(F)O3)CC1` [Example 42, 4-(2,2-Difluoro-benzo[1,3]dioxol-5-ylmethyl)-piperazine-1-carboxylic acid isoxazolo[4,5-b]pyridin-3-ylamide], the figures for the IC50 on FAAH and on Rat FAAH were 2000 nM and 220 nM, respectively.

Turning to `O=C(Nc1noc2cccnc12)N1CCN(Cc2ccc(Cl)c(Cl)c2)CC1` [Example 43, 4-(3,4-Dichloro-benzyl)-piperazine-1-carboxylic acid isoxazolo[4,5-b]pyridin-3-ylamide], the IC50 at FAAH amounted to 250 nM; against Rat FAAH, 112 nM.

Turning to `O=C(Nc1cnc2[nH]ccc2c1)N1CCN(Cc2ccc3c(c2)OC(F)(F)O3)CC1` [Example 44, 4-(2,2-Difluoro-benzo[1,3]dioxol-5-ylmethyl)-piperazine-1-carboxylic acid (1H-pyrrolo[2,3-b]pyridin-5-yl)-amide], the IC50 against FAAH amounted to 16 nM; against Rat FAAH it was 9 nM.

`O=C(Nc1cnc2cc[nH]c2c1)N1CCN(Cc2ccc3c(c2)OC(F)(F)O3)CC1` [Example 45, 4-(2,2-Difluoro-benzo[1,3]dioxol-5-ylmethyl)-piperazine-1-carboxylic acid (1H-pyrrolo[3,2-b]pyridin-6-yl)-amide]: the IC50 at FAAH and at Rat FAAH was 230 nM each time.

As to `O=C(Nc1ccc2ncoc2c1)N1CCN(Cc2cccc(Oc3ccc(Cl)cc3)c2)CC1` [Example 46, 4-[3-(4-Chloro-phenoxy)-benzyl]-piperazine-1-carboxylic acid benzooxazol-6-ylamide], the IC50 on FAAH is 27 nM; against Rat FAAH, 7000 nM.

With `O=C(Nc1ccc2ncoc2c1)N1CCN(Cc2ccc3c(c2)OC(F)(F)O3)CC1` [Example 47, 4-(2,2-Difluoro-benzo[1,3]dioxol-5-ylmethyl)-piperazine-1-carboxylic acid benzooxazol-6-ylamide], the figures for the IC50 against FAAH and against Rat FAAH were 2000 nM and 3000 nM, respectively.

For the molecule `O=C(Nc1ccc2nccn2c1)N1CCN(Cc2ccc3c(c2)OC(F)(F)O3)CC1` [Example 51, 4-(2,2-Difluoro-benzo[1,3]dioxol-5-ylmethyl)-piperazine-1-carboxylic acid imidazo[1,2-a]pyridin-6-ylamide], the IC50 on FAAH and at Rat FAAH was more than 10000 nM in each case.

For the molecule `O=C(Nc1cccn2ccnc12)N1CCN(Cc2ccc(OC(F)(F)F)c(Cl)c2)CC1` [Example 53, 4-(3-Chloro-4-trifluoromethoxy-benzyl)-piperazine-1-carboxylic acid imidazo[1,2-a]pyridin-8-ylamide], the IC50 against FAAH was 1300 nM; on Rat FAAH, 120 nM.

Consider `O=C(Nc1cccn2ccnc12)N1CCN(Cc2ccc3c(c2)OC(F)(F)O3)CC1` [Example 54, 4-(2,2-Difluoro-benzo[1,3]dioxol-5-ylmethyl)-piperazine-1-carboxylic acid imidazo[1,2-a]pyridin-8-ylamide], for which the IC50 against FAAH was 6000 nM; against Rat FAAH, 350 nM.

Regarding `O=C(Nc1cn2ccccc2n1)N1CCN(Cc2cccc(Oc3ccc(Cl)cc3)c2)CC1` [Example 55, 4-[3-(4-Chloro-phenoxy)-benzyl]-piperazine-1-carboxylic acid imidazo[1,2-a]pyridin-2-ylamide], the concentration for half-maximal inhibition (IC50) against FAAH and against Rat FAAH was more than 10000 nM throughout.

With `O=C(Nc1cn2ccccc2n1)N1CCN(Cc2ccc(OC(F)(F)F)c(Cl)c2)CC1` [Example 56, 4-(3-Chloro-4-trifluoromethoxy-benzyl)-piperazine-1-carboxylic acid imidazo[1,2-a]pyridin-2-ylamide], the half-maximal inhibitory concentration (IC50) on FAAH and at Rat FAAH was more than 10000 nM each time.

As to `O=C(NC1=NS(=O)(=O)c2ccccc21)N1CCN(Cc2cccc(Oc3ccc(Cl)cc3)c2)CC1` [Example 59, 4-[3-(4-Chloro-phenoxy)-benzyl]-piperazine-1-carboxylic acid (1,1-dioxo-1H-λ^6-benzo[d]isothiazol-3-yl)-amide], the IC50 against FAAH and against Rat FAAH was 2000 nM in each case.

With `O=C(Nc1ccnc2[nH]ccc12)N1CCN(Cc2cccc(Oc3ccc(Cl)cc3)c2)CC1` [Example 61, 4-[3-(4-Chloro-phenoxy)-benzyl]-piperazine-1-carboxylic acid (1H-pyrrolo[2,3-b]pyridin-4-yl)-amide], the IC50 on FAAH is 1000 nM; at Rat FAAH, 6000 nM.

With `CC(C)n1ncc2cc(NC(=O)N3CCN(Cc4cccc(Oc5ccc(Cl)cc5)c4)CC3)cnc21` [Example 62, 4-[3-(4-Chloro-phenoxy)-benzyl]-piperazine-1-carboxylic acid (1-isopropyl-1H-pyrazolo[3,4-b]pyridin-5-yl)-amide], the results for the concentration for half-maximal inhibition (IC50) at FAAH and against Rat FAAH were 220 nM and 4000 nM, respectively.

For `Cc1nn(C)c2ncc(NC(=O)N3CCN(Cc4cccc(Oc5ccc(Cl)cc5)c4)CC3)cc12` [Example 64, 4-[3-(4-Chloro-phenoxy)-benzyl]-piperazine-1-carboxylic acid (1,3-dimethyl-1H-pyrazolo[3,4-b]pyridin-5-yl)-amide], the IC50 is 26 nM against FAAH and 95 nM against Rat FAAH.

`Cn1cc2c(NC(=O)N3CCN(Cc4cccc(Oc5ccc(Cl)cc5)c4)CC3)cccc2n1` [Example 65, 4-[3-(4-Chloro-phenoxy)-benzyl]-piperazine-1-carboxylic acid (2-methyl-2H-indazol-4-yl)-amide]: the IC50 at FAAH is 50 nM; on Rat FAAH it was 28 nM.

Turning to `O=C(Nc1nc2ccccc2o1)N1CCN(Cc2ccc(OC(F)(F)F)c(Cl)c2)CC1` [Example 67, 4-(3-Chloro-4-trifluoromethoxy-benzyl)-piperazine-1-carboxylic acid benzooxazol-2-ylamide], the IC50 at FAAH and against Rat FAAH was more than 10000 nM throughout.

For the molecule `O=C(Nc1nc2ccccc2o1)N1CCN(Cc2ccc3c(c2)OC(F)(F)O3)CC1` [Example 68, 4-(2,2-Difluoro-benzo[1,3]dioxol-5-ylmethyl)-piperazine-1-carboxylic acid benzooxazol-2-ylamide], the IC50 on FAAH and against Rat FAAH was more than 10000 nM each time.

With `O=C(Nc1cccc2nccn12)N1CCN(Cc2ccc(OC(F)(F)F)c(Cl)c2)CC1` [Example 70, 4-(3-Chloro-4-trifluoromethoxy-benzyl)-piperazine-1-carboxylic acid imidazo[1,2-a]pyridin-5-ylamide], the figures for the IC50 against FAAH and against Rat FAAH were 67 nM and 38 nM, respectively.
